What was measured:
E. coli N5-CAIR mutase [1] = molecular target: T1, E. coli N5-CAIR mutase (Escherichia coli, UniProt P0AG18); test: biochemical; type: biochemical
T1 construct: His-tag (inferred from cobalt-resin/imidazole purification); made in house; host or cells: E. coli BL21(DE3), plasmid pJK057 (Addgene)
T1 sequence (P0AG18 1-169): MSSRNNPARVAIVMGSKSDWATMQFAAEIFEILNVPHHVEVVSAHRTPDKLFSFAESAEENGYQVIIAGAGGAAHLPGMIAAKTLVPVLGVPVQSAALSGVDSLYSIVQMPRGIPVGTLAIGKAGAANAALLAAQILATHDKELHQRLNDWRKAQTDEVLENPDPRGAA

E. coli N5-CAIR mutase [2] = molecular target: T1, E. coli N5-CAIR mutase; test: Thermal shift assay (thermal binding assay); conditions: NAIR 20 μM, eight replicates; enzyme alone 57 ± 0.36°C
[3] = tested on: Gallus gallus AIR carboxylase; test: Inhibition of AIR carboxylase by NAIR (literature); type: biochemical
bacterial N5-CAIR mutase = conditions: bacterial enzyme; cited from earlier work
[4] = molecular target: Gallus gallus AIR carboxylase; conditions: cited from earlier work

Structure (SMILES)	Ki (E. coli N5-CAIR mutase [1])	mechanism of inhibition (E. coli N5-CAIR mutase [1])	further results
CN1CCCC(c2cnc(-c3ncco3)cn2)C1 (stereo not drawn) [Compound 2]	4.8 µM	sigmoidal Michaelis-Menten curve	
Cc1cnc(-c2ccc(C3CCCNC3)nc2)s1 (stereo not drawn) [Compound 9]	83 µM	competitive	
CN1CCCC(Cc2cccnc2)C1 (stereo not drawn) [Compound 10]			inhibition of enzyme activity (E. coli N5-CAIR mutase [1]): no inhibition
Cc1nc(-c2ccc(C3CCCN3)nc2)sc1C (stereo not drawn) [Compound 22]	159 µM	uncompetitive	
c1cnc(CC2CCNC2)nc1 (stereo not drawn) [Compound 25]	31 µM	non-competitive	
Cc1ccc(Nc2nnns2)cc1 [Compound 34, reference compound]			inhibition of E. coli N5-CAIR mutase (E. coli N5-CAIR mutase [1]): do not show inhibition
CCc1ccc(C(=O)Nc2nncs2)s1 [Compound 35, reference compound]			inhibition of E. coli N5-CAIR mutase (E. coli N5-CAIR mutase [1]): do not show inhibition
Nc1c([N+](=O)[O-])ncn1[C@@H]1O[C@H](COP(=O)(O)O)[C@@H](O)[C@H]1O [NAIR, 4-nitro-5-aminoimidazole ribonucleotide]			average melting temperature of N5-CAIR mutase with compound bound (E. coli N5-CAIR mutase [2]): 75 ± 0.32 °C; selectivity for AIR carboxylase over N5-CAIR mutase [3]: 1000 fold; Ki (bacterial N5-CAIR mutase): 0.5 µM; Ki [4]: 0.00034 µM

Source: publication PMC11451730, “A Fragment-Based Screen for Inhibitors of Escherichia coli N5-CAIR Mutase” (Research Square, 2024)
